Several values for one entry are separate records, joined by “and”; a condition that tells them apart may be missing. Equal values may be shown once. Read-outs that look alike come from different tables or passages of the source.
Molecular target: T1, TLR9 (Homo sapiens, UniProt Q9NR96)
T1 sequence (Q9NR96 26-1032): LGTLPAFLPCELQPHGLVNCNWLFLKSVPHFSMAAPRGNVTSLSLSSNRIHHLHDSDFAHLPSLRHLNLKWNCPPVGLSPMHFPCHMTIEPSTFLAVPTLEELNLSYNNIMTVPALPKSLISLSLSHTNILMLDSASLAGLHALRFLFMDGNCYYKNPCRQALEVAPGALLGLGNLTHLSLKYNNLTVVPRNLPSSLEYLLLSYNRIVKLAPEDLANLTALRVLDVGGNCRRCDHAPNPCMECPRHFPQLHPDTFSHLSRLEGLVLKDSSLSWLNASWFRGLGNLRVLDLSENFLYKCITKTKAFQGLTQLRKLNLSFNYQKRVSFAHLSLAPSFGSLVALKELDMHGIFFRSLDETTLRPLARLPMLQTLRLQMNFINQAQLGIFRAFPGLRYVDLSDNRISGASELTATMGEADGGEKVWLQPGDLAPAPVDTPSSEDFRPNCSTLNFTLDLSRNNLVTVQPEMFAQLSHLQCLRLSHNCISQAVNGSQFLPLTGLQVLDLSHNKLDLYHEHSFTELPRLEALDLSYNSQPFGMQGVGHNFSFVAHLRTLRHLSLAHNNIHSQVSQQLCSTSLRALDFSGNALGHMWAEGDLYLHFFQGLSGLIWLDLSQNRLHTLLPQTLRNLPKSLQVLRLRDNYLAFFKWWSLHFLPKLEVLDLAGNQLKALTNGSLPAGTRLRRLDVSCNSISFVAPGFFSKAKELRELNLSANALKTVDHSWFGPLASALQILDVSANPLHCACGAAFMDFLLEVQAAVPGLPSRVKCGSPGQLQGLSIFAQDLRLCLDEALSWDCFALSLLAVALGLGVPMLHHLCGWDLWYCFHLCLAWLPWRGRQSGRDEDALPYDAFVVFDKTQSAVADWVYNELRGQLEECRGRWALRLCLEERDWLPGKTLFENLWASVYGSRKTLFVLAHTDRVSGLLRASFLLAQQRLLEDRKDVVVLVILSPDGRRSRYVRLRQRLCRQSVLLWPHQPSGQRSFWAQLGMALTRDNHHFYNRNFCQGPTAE
Test: Subsequent human PBMC assay, DNA-mediated activation of TLR9, IL-6 and IFN-α
Format: cell-based
Description: Human PBMC Cell-Based Assay. Human peripheral blood mononuclear cells (PBMC) were isolated from freshly-drawn heparinized (10 USP units/ml, Hospira, Lakeforest, Ill.) healthy donor whole blood by density gradient (Histopaque® 1077, Sigma, Inc., St. Louis, Mo.). Briefly, 25 ml blood was diluted with 15 ml PBS (without Ca^2+, Mg^2+) in a 50 ml conical tube, and 12 ml Histopaque was underlaid using a spinal needle. Tubes were centrifuged for 45 minutes at 1200 rpm (350×g), and PBMC were collected from the buffy coat. Cells were then washed twice in PBS, and red blood cells were lysed by suspension in 5 ml ammonium chloride solution (1× Red Blood Cell Lysis Buffer, eBioscience) for 5 minutes at room temperature. After a final wash in PBS, PBMC were resuspended at a final concentration of 2×10^6/ml in RPMI-1640 media with L-glutamine (Invitrogen) and supplemented with 25 mM HEPES (Mediatech, Inc, Manassas Va.), 10% fetal bovine serum (HyClone, Logan, Utah), and Penicillin-Streptomycin-Glutamine (Mediatech) and plated at 100 ul/well (2×10^5 cells/well) in tissue culture treated 96-well plates (Falcon).
Antagonist compounds solubilized and serial diluted in 100% DMSO were added in triplicate to cells to yield a final concentration of 0.1% DMSO (v/v). Hydroxychloroquine (Acros Organics) solubilized and serial diluted in PBS was added in triplicate to cells. PBMC were incubated with antagonist compounds or HCQ for 30 minutes at 37° C., 5% CO2 before adding various TLR agonist reagents in 100 ul complete media per well as follows (final concentrations indicated): R848 (Resiquimod; GLSynthesis, Worcester, Mass.) at 1 uM for TLR7 and TLR8, LPS (Sigma) at 10 ng/ml for TLR4, and CpG-2216 (InvivoGen) at 5 ug/ml for TLR9. To prepare a TLR7/8 agonist that mimics RNA-containing auto-antibody immune complexes in lupus patients, a 26-mer RNA with a sequence derived from human U1 snRNA stem loop IV [(sequence: […]-[…] (SEQ ID NO: 2) with phosphorothioate backbone] was synthesized (Dharmacon, Inc., Lafayette, Colo.), which has been shown previously to be a potent TLR7 and TLR8 agonist. This RNA molecule was diluted to 2.5 μM in serum-free RPMI, and mouse anti-human single stranded DNA monoclonal antibody (MAB3034, Millipore, Inc., Billerica, Mass.), which also cross-reacts with RNA, was added at a 1:25 dilution or at 1 ug/ml. The resulting “RNA-Ig” stimulus was incubated at room temperature for 15-30 minutes before adding to cells. PBMC were incubated with the various TLR agonists for 20 hours at 37° C., 5% CO2. Cell culture supernatants were collected, and levels of various human cytokines were assessed as indicated by standard ELISA procedure according to the manufacturer's recommended protocol (BD Biosciences, Inc., San Diego, Calif.). In a subsequent assay (Table 6) the ability of ER-899742 to block stimulation of normal PBMC by various TLR7/8 ligands, but not DNA-mediated activation of TLR9, was examined. In this assay cells were plated at 1×10^5 cells/well in 100 ul in 96-well plates.

Row | SMILES | IC50 (IC50 IFN-α Ave., human PBMC, ligand ODN2006-DOTAP, average of donors) [nM] | IC50 (IC50 IFN-α Ave., human PBMC, ligand ODN2216-Ig, average of donors) [nM] | IC50 (IC50 IFN-α, human PBMC, ligand ODN2006-DOTAP, individual donors) [nM] | IC50 (IC50 IFN-α, human PBMC, ligand ODN2216-Ig, individual donors) [nM] | IC50 (IC50 IL-6, human PBMC, ligand ODN2006-DOTAP, individual donors) [nM] | IC50 (IC50 IL-6, human PBMC, ligand ODN2216-Ig, individual donors) [nM] | IC50 (IC50 IL-6 Ave., human PBMC, ligand ODN2006-DOTAP, average of donors) [nM] | IC50 (IC50 IL-6 Ave., human PBMC, ligand ODN2216-Ig, average of donors) [nM] | IC50 (human PBMC, ligand ODN2006-DOTAP, average of donors, read-out: IC50 IFN-α Ave.) [nM] | IC50 (human PBMC, ligand ODN2006-DOTAP, average of donors, read-out: IC50 IL-6 Ave.) [nM] | IC50 (human PBMC, ligand ODN2006-DOTAP, individual donors, read-out: IC50 IFN-α) | IC50 (human PBMC, ligand ODN2006-DOTAP, individual donors, read-out: IC50 IL-6) | IC50 (human PBMC, ligand ODN2216-Ig, average of donors, read-out: IC50 IFN-α Ave.) [nM] | IC50 (human PBMC, ligand ODN2216-Ig, average of donors, read-out: IC50 IL-6 Ave.) [nM] | IC50 (human PBMC, ligand ODN2216-Ig, individual donors, read-out: IC50 IFN-α)
1 | C[C@@H]1CN(c2ccc(C#N)c3ncccc23)C[C@H](C(=O)N[C@H]2CNC[C@H]2F)O1.Cl [ER-899742, (2R,6R)-4-(8-cyanoquinolin-5-yl)-N-[(3S,4R)-4-fluoropyrrolidin-3-yl]-6-methylmorpholine-2-carboxamide hydrochloride] | > 10000 | > 10000 | > 10000 | > 10000 | > 10000 | > 10000 | > 10000 | > 10000 | – | – | – | – | – | – | –
2 | CCN(CCO)CCCC(C)Nc1ccnc2cc(Cl)ccc12 (stereo not drawn) [HCQ, hydroxychloroquine, reference compound] | – | – | – | – | – | – | – | – | 3020 | 1720 | 910 nM and 4100 nM and 3100 nM and 3960 nM | 1200 nM and 1240 nM and 1540 nM and 2400 nM and 1580 nM and 2370 nM | 290 | 2380 | 280 nM and 290 nM
